In patent US7669997B2, “Ink-jet textile printing method” (Konica Minolta Holdings, Inc., priority 2004, dated 2010):

Test: pKa (acid dissociation constant) of dispersing agents and acids
Assay type: physicochemical
Conditions: acid of pretreatment solution
Excerpt: The pKa value, as described in the present invention, is also called an acid dissociation constant, which is detailed, for example, in Buichi Sakaguchi and Keihei Ueno, Kinzoku Chelates [III] (Metal Chelates [III]), Nanko Do, which describes pKa values of acidic dissociating groups. Further, it is possible to determine the pKa of compounds, which are not described in the above reference, employing conventional methods. For example, it is possible to determine the pKa employing the method described, for example, in Jikken Kagaku Koza 5 Netsuteki Sokutei oyobi Heiko (Experimental Chemistry Lecture 5 Thermal Measurements and Equilibrium) page 460, edited by Nihon Kagaku Kai, Maruzen Co., Ltd.

Structure (SMILES): O=C(O)/C=C\C(=O)O [maleic acid]
- pKa (first listed pKa value): < 2
- pKa (second listed pKa value): 5.8
